How the values were obtained:
ACE [1] = biological target: ACE (Homo sapiens, UniProt P12821); settings: literature (Nakamura 1995; Aryoshi 1993); read-out: IC50 values reported earlier; cited from earlier work
ACE [2] = assay: at-line ACE inhibition assay; assay type: biochemical; settings: HHL substrate, PBS pH 7.4, 60 minutes at 50° C.
Text: The presence of novel ACE inhibiting peptides in CDBAP was investigated by using 2-dimensional-chromatographic-separation combined with an at-line ACE inhibition assay and mass spectrometry for identification. In the first analysis the peptide mixture was separated on an ODS3 liquid chromatography (LC) column and ACE inhibition profiles were generated from the various fractions obtained. In a second analysis the fractions from the first column showing a high ACE inhibition were further separated on a Biosuite LC column using a different gradient profile. The fractions collected from this second column were split into two parts: one part was used for the at-line ACE inhibition measurement while the other part was subjected to MS and MS-MS analysis to identify the peptides present. […]
The 96 well plate was then analysed on a flash-HPLC-column. […] Hippuric acid (H) and HHL were monitored at 280 nm. The peak heights of H and HHL were measured and the ACE inhibition (ACEI) of each fraction was calculated according to the equation: […]
The Degree of Cleavage was calculated by expressing the peak height of H as a fraction of the sum of the peak heights of H and HHL.

ACE [3] = assay: modified Matsui ACE inhibition assay; assay type: biochemical
Experimental: Quantification of MAP and ITP in the various samples was performed on a Micromass Quattro II MS instrument operated in the positive electrospray, multiple reaction monitoring mode. The HPLC method used was similar to the one described above. The MS settings (ESI+) were as follows: cone voltage 37 V, capillary voltage 4 kV, drying gas nitrogen at 300 l/h. Source and nebulizer temperature: 100° C. and 250° C., respectively. The synthesized peptides were used to prepare a calibration line using the precursor ion 318.1 and the summed product ions […] for MAP and using the precursor ion 320.2 and the summed product ions […] for ITP. According to these analyses the novel ACE inhibiting tripeptides MAP and ITP are present in the CDBAP product in quantities corresponding with 2.9 mg MAP/gram CDBAP or 4.8 mg MAP/gram protein in CDBAP and 0.9 mg ITP/gram CDBAP en 1.4 mg ITP/gram protein in CDBAP. […]
Each one of the four samples contained 75 μl 3 mM hippuryl histidine leucine (Hip-His-Leu, Sigma) dissolved in a 250 mM borate solution containing 200 mM NaCl, pH 8.3. […] After incubation for 20 min. at 37° C., 4 ml 4 mM Na2SO3 in 0.2 M NaH2PO4 was added and the light absorbance at 416 nm was measured with UV/Vis spectrophotometer (Shimadzu UV-1601 with a CPS controller, Netherlands). […]

Chain of ACE (Homo sapiens, UniProt P12821) (P12821 30-1306, species assumed): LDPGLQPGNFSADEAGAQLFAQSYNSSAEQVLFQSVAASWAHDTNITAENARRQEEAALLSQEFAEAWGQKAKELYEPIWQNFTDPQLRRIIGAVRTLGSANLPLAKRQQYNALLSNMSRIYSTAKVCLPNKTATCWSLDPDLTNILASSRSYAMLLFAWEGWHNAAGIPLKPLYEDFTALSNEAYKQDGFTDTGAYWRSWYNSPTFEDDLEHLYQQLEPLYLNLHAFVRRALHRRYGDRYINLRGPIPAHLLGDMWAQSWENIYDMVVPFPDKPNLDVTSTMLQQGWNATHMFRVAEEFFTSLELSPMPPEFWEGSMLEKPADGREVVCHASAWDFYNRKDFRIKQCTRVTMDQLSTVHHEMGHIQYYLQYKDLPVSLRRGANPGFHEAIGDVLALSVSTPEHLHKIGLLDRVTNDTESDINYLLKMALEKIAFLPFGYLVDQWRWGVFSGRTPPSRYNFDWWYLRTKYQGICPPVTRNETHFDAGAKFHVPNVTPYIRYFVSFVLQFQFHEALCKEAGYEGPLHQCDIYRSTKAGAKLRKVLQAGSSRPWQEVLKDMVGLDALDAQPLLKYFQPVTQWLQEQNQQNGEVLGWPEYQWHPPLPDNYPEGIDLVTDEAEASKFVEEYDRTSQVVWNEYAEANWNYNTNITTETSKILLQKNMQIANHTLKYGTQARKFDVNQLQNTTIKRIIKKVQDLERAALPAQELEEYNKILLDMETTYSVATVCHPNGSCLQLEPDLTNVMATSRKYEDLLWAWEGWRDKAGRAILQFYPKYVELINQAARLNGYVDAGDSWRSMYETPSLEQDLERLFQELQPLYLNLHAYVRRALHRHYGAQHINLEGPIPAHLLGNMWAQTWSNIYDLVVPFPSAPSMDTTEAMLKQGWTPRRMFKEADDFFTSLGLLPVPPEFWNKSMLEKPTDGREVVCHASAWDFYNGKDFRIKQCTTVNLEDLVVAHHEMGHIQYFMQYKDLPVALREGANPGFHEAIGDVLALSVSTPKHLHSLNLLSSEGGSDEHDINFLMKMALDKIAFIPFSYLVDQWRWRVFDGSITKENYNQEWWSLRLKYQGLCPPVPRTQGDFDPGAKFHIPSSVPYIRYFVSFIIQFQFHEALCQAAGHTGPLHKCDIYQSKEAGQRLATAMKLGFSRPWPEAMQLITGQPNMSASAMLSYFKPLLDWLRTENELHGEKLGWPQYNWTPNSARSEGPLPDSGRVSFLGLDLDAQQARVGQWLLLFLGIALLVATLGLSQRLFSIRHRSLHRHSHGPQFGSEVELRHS

Row | Substance | IC50 (ACE [1]) [µM] | IC50 (ACE [2]) [µM] | IC50 (ACE [3]; chemically synthesized peptides, Hip-His-Leu, pH 8.3, 37° C., 30 min, read-out: IC50 value Modified Matsui assay) [µM] | IC50 (ACE [3]; read-out: IC50 value in Modified Matsui test) [µM]
1 | IPP: known ACE inhibiting tripeptide, kappa-casein f108-110; chemically synthesized IPP used as internal reference | 5 | 7.1 | 2 | 2
2 | LPP: known ACE inhibiting tripeptide, β-casein f151-153 (UniProt P02666 166-168, looked up, fragment) | 9.6 |  |  | 

Source: patent publication US20090143311A1, “Compositions comprising tripeptides inhibiting ace” (priority 2005, published 2009)
